{"source": "PubChem BioAssay AID1963840", "about": "(Molecular Pharmacology Branch, DTP, NCI, 2024);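 note: spheroids exposed to compounds for seven days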;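 for viability, T/C: 100% = DMSO vehicle control viability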", "system": "695427-040-R-J1-PDC complex spheroid viability", "test": "Anticancer human tumor 695427-040-R-J1-PDC patient-derived colon adenocarcinoma cell line growth inhibition [POLQ]", "details": "for IC50: curve of first compound; for viability, T/C: stronger effect = lower value", "method_in_brief": "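Complex spheroid viability model combining PDC tumour cells with endothelial (HUVEC) and MSC stromal cells. Novobiocin, ART-558 or RP6685 were tested singly and in combination with standard and investigational anticancer drugs. Each was titrated in half-log steps from near clinical Cmax, or from 10 microM where Cmax was unknown.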", "key": {"[1]": {"details": "second compound 0.0316 µM, first compound 0.0316 µM"}, "[2]": {"details": "second compound 0.0316 µM, first compound 0.1 µM"}, "[3]": {"details": "second compound 0.0316 µM, first compound 0.316 µM"}, "[4]": {"details": "second compound 0.0316 µM, first compound 1 µM"}, "[5]": {"details": "second compound 0.0316 µM, first compound 3.16 µM"}, "[6]": {"details": "second compound 0.0316 µM, first compound 10 µM"}, "[7]": {"details": "second compound 0.1 µM, first compound 0.0316 µM"}, "[8]": {"details": "second compound 0.1 µM, first compound 0.1 µM"}, "[9]": {"details": "second compound 0.1 µM, first compound 0.316 µM"}, "[10]": {"details": "second compound 0.1 µM, first compound 1 µM"}, "[11]": {"details": "second compound 0.1 µM, first compound 3.16 µM"}, "[12]": {"details": "second compound 0.1 µM, first compound 10 µM"}, "[13]": {"details": "second compound 0.316 µM, first compound 0.0316 µM"}, "[14]": {"details": "second compound 0.316 µM, first compound 0.1 µM"}, "[15]": {"details": "second compound 0.316 µM, first compound 0.316 µM"}, "[16]": {"details": "second compound 0.316 µM, first compound 1 µM"}, "[17]": {"details": "second compound 0.316 µM, first compound 3.16 µM"}, "[18]": {"details": "second compound 0.316 µM, first compound 10 µM"}, "[19]": {"details": "second compound 1 µM, first compound 0.0316 µM"}, "[20]": {"details": "second compound 1 µM, first compound 0.1 µM"}, "[21]": {"details": "second compound 1 µM, first compound 0.316 µM"}, "[22]": {"details": "second compound 1 µM, first compound 1 µM"}, "[23]": {"details": "second compound 1 µM, first compound 3.16 µM"}, "[24]": {"details": "second compound 1 µM, first compound 10 µM"}, "[25]": {"details": "second compound 3.16 µM, first compound 0.0316 µM"}, "[26]": {"details": "second compound 3.16 µM, first compound 0.1 µM"}, "[27]": {"details": "second compound 3.16 µM, first compound 0.316 µM"}, "[28]": {"details": "second compound 3.16 µM, first compound 1 µM"}, "[29]": {"details": "second compound 3.16 µM, first compound 3.16 µM"}, "[30]": {"details": "second compound 3.16 µM, first compound 10 µM"}, "[31]": {"details": "second compound 10 µM, first compound 0.0316 µM"}, "[32]": {"details": "second compound 10 µM, first compound 0.1 µM"}, "[33]": {"details": "second compound 10 µM, first compound 0.316 µM"}, "[34]": {"details": "second compound 10 µM, first compound 1 µM"}, "[35]": {"details": "second compound 10 µM, first compound 3.16 µM"}, "[36]": {"details": "second compound 10 µM, first compound 10 µM"}}, "data": [{"smiles": "CCc1cc2c(N3CCc4c(cc(Cn5ccnc5)cc4-c4cn(C)nc4C(F)(F)F)C3=O)cc(C)nc2c(OC)n1", "note": "+ Nc1ccc(C#CCN(C(=O)Cc2ncc(C(F)(F)F)cc2C(F)(F)F)c2ccc(F)cc2)nn1", "values": [{"measurement": "IC50", "setting": "second compound 0.0316 µM", "result": "> 10", "unit": "µM"}, {"measurement": "IC50", "setting": "second compound 0.1 µM", "result": "> 10", "unit": "µM"}, {"measurement": "IC50", "setting": "second compound 0.316 µM", "result": "> 10", "unit": "µM"}, {"measurement": "IC50", "setting": "second compound 1 µM", "result": "> 10", "unit": "µM"}, {"measurement": "IC50", "setting": "second compound 3.16 µM", "result": "> 10", "unit": "µM"}, {"measurement": "IC50", "setting": "second compound 10 µM", "result": "> 10", "unit": "µM"}, {"measurement": "viability, T/C", "setting": "[1]", "result": 102, "unit": "%"}, {"measurement": "viability, T/C", "setting": "[2]", "result": 106, "unit": "%"}, {"measurement": "viability, T/C", "setting": "[3]", "result": 107, "unit": "%"}, {"measurement": "viability, T/C", "setting": "[4]", "result": 108, "unit": "%"}, {"measurement": "viability, T/C", "setting": "[5]", "result": 113, "unit": "%"}, {"measurement": "viability, T/C", "setting": "[6]", "result": 108, "unit": "%"}, {"measurement": "viability, T/C", "setting": "[7]", "result": 120, "unit": "%"}, {"measurement": "viability, T/C", "setting": "[8]", "result": 103, "unit": "%"}, {"measurement": "viability, T/C", "setting": "[9]", "result": 103, "unit": "%"}, {"measurement": "viability, T/C", "setting": "[10]", "result": 101, "unit": "%"}, {"measurement": "viability, T/C", "setting": "[11]", "result": 112, "unit": "%"}, {"measurement": "viability, T/C", "setting": "[12]", "result": 102, "unit": "%"}, {"measurement": "viability, T/C", "setting": "[13]", "result": 102, "unit": "%"}, {"measurement": "viability, T/C", "setting": "[14]", "result": 98.9, "unit": "%"}, {"measurement": "viability, T/C", "setting": "[15]", "result": 99.9, "unit": "%"}, {"measurement": "viability, T/C", "setting": "[16]", "result": 101, "unit": "%"}, {"measurement": "viability, T/C", "setting": "[17]", "result": 113, "unit": "%"}, {"measurement": "viability, T/C", "setting": "[18]", "result": 98.8, "unit": "%"}, {"measurement": "viability, T/C", "setting": "[19]", "result": 112, "unit": "%"}, {"measurement": "viability, T/C", "setting": "[20]", "result": 95.8, "unit": "%"}, {"measurement": "viability, T/C", "setting": "[21]", "result": 99.3, "unit": "%"}, {"measurement": "viability, T/C", "setting": "[22]", "result": 105, "unit": "%"}, {"measurement": "viability, T/C", "setting": "[23]", "result": 98.5, "unit": "%"}, {"measurement": "viability, T/C", "setting": "[24]", "result": 98.3, "unit": "%"}, {"measurement": "viability, T/C", "setting": "[25]", "result": 109, "unit": "%"}, {"measurement": "viability, T/C", "setting": "[26]", "result": 116, "unit": "%"}, {"measurement": "viability, T/C", "setting": "[27]", "result": 88.3, "unit": "%"}, {"measurement": "viability, T/C", "setting": "[28]", "result": 95.3, "unit": "%"}, {"measurement": "viability, T/C", "setting": "[29]", "result": 103, "unit": "%"}, {"measurement": "viability, T/C", "setting": "[30]", "result": 108, "unit": "%"}, {"measurement": "viability, T/C", "setting": "[31]", "result": 107, "unit": "%"}, {"measurement": "viability, T/C", "setting": "[32]", "result": 94.6, "unit": "%"}, {"measurement": "viability, T/C", "setting": "[33]", "result": 95.6, "unit": "%"}, {"measurement": "viability, T/C", "setting": "[34]", "result": 91.8, "unit": "%"}, {"measurement": "viability, T/C", "setting": "[35]", "result": 98.7, "unit": "%"}, {"measurement": "viability, T/C", "setting": "[36]", "result": 97.9, "unit": "%"}]}, {"smiles": "COc1cc2cc(C(=O)CCC(=O)O)sc2cc1OC", "note": "+ Nc1ccc(C#CCN(C(=O)Cc2ncc(C(F)(F)F)cc2C(F)(F)F)c2ccc(F)cc2)nn1", "values": [{"measurement": "IC50", "setting": "second compound 0.0316 µM", "result": "> 10", "unit": "µM"}, {"measurement": "IC50", "setting": "second compound 0.1 µM", "result": "> 10", "unit": "µM"}, {"measurement": "IC50", "setting": "second compound 0.316 µM", "result": "> 10", "unit": "µM"}, {"measurement": "IC50", "setting": "second compound 1 µM", "result": "> 10", "unit": "µM"}, {"measurement": "IC50", "setting": "second compound 3.16 µM", "result": "> 10", "unit": "µM"}, {"measurement": "IC50", "setting": "second compound 10 µM", "result": "> 10", "unit": "µM"}, {"measurement": "viability, T/C", "setting": "[1]", "result": 111, "unit": "%"}, {"measurement": "viability, T/C", "setting": "[2]", "result": 92, "unit": "%"}, {"measurement": "viability, T/C", "setting": "[3]", "result": 103, "unit": "%"}, {"measurement": "viability, T/C", "setting": "[4]", "result": 115, "unit": "%"}, {"measurement": "viability, T/C", "setting": "[5]", "result": 105, "unit": "%"}, {"measurement": "viability, T/C", "setting": "[6]", "result": 92.1, "unit": "%"}, {"measurement": "viability, T/C", "setting": "[7]", "result": 109, "unit": "%"}, {"measurement": "viability, T/C", "setting": "[8]", "result": 118, "unit": "%"}, {"measurement": "viability, T/C", "setting": "[9]", "result": 103, "unit": "%"}, {"measurement": "viability, T/C", "setting": "[10]", "result": 102, "unit": "%"}, {"measurement": "viability, T/C", "setting": "[11]", "result": 115, "unit": "%"}, {"measurement": "viability, T/C", "setting": "[12]", "result": 96.6, "unit": "%"}, {"measurement": "viability, T/C", "setting": "[13]", "result": 111, "unit": "%"}, {"measurement": "viability, T/C", "setting": "[14]", "result": 109, "unit": "%"}, {"measurement": "viability, T/C", "setting": "[15]", "result": 94.1, "unit": "%"}, {"measurement": "viability, T/C", "setting": "[16]", "result": 109, "unit": "%"}, {"measurement": "viability, T/C", "setting": "[17]", "result": 105, "unit": "%"}, {"measurement": "viability, T/C", "setting": "[18]", "result": 98.9, "unit": "%"}, {"measurement": "viability, T/C", "setting": "[19]", "result": 109, "unit": "%"}, {"measurement": "viability, T/C", "setting": "[20]", "result": 100, "unit": "%"}, {"measurement": "viability, T/C", "setting": "[21]", "result": 104, "unit": "%"}, {"measurement": "viability, T/C", "setting": "[22]", "result": 108, "unit": "%"}, {"measurement": "viability, T/C", "setting": "[23]", "result": 120, "unit": "%"}, {"measurement": "viability, T/C", "setting": "[24]", "result": 89.7, "unit": "%"}, {"measurement": "viability, T/C", "setting": "[25]", "result": 111, "unit": "%"}, {"measurement": "viability, T/C", "setting": "[26]", "result": 101, "unit": "%"}, {"measurement": "viability, T/C", "setting": "[27]", "result": 102, "unit": "%"}, {"measurement": "viability, T/C", "setting": "[28]", "result": 99.1, "unit": "%"}, {"measurement": "viability, T/C", "setting": "[29]", "result": 106, "unit": "%"}, {"measurement": "viability, T/C", "setting": "[30]", "result": 86.4, "unit": "%"}, {"measurement": "viability, T/C", "setting": "[31]", "result": 105, "unit": "%"}, {"measurement": "viability, T/C", "setting": "[32]", "result": 105, "unit": "%"}, {"measurement": "viability, T/C", "setting": "[33]", "result": 98.7, "unit": "%"}, {"measurement": "viability, T/C", "setting": "[34]", "result": 87.4, "unit": "%"}, {"measurement": "viability, T/C", "setting": "[35]", "result": 102, "unit": "%"}, {"measurement": "viability, T/C", "setting": "[36]", "result": 102, "unit": "%"}]}]}
